In ChEMBL document CHEMBL4229385, “Study of the structure-activity relationship of polymyxin analogues” (2018):
Converted amounts (≈) assume the structure as drawn. Where a SMILES comes first, the peptide text is derived from it. Bridges are numbered along the chain shown (N, C = ends). [ ]: non-standard residue; d: D form. The star is where a group is joined. Benzoyl(4-Ph) = O=C(c1ccc(-c2ccccc2)cc1)*; Bip = N[C@@H](Cc1ccc(-c2ccccc2)cc1)C(=O)O; Octanoyl = CCCCCCCC(=O)*; Dab = NCC[C@H](N)C(=O)O

Tests used:
Assay type in all cases: functional
Pseudomonas aeruginosa [1] = assay: Antibacterial activity against Pseudomonas aeruginosa E-2 by agar dilution method
Pseudomonas aeruginosa [2] = assay: Antibacterial activity against amikacin/imipenem-resistant Pseudomonas aeruginosa KUB2703 by agar dilution method
Pseudomonas aeruginosa [3] = assay: Antibacterial activity against multidrug-resistant Pseudomonas aeruginosa KUB2705 by agar dilution method
Pseudomonas aeruginosa [4] = assay: Antibacterial activity against amikacin/ciprofloxacin-resistant Pseudomonas aeruginosa KUB2704 by agar dilution method
Pseudomonas aeruginosa [5] = assay: Antibacterial activity against Pseudomonas aeruginosa PAO1 by agar dilution method

Compound | MIC (Pseudomonas aeruginosa [1]) | MIC (Pseudomonas aeruginosa [2]) | MIC (Pseudomonas aeruginosa [3]) | MIC (Pseudomonas aeruginosa [4]) | MIC (Pseudomonas aeruginosa [5])
CCCCCCCC(=O)N[C@@H](CCN)C(=O)N[C@H](C(=O)N[C@@H](CCN)C(=O)N[C@H]1CCNC(=O)[C@H]([C@@H](C)O)NC(=O)[C@H](CCN)NC(=O)[C@H](CCN(C)C)NC(=O)[C@H](CC(C)C)NC(=O)[C@@H](CC(C)C)NC(=O)[C@H](CCN)NC1=O)[C@@H](C)O | 2 µg/mL (≈ 1.69 µM) | 4 µg/mL (≈ 3.38 µM) | 4 µg/mL (≈ 3.38 µM) | 4 µg/mL (≈ 3.38 µM) | 4 µg/mL (≈ 3.38 µM)
C[C@@H](O)[C@@H]1NC(=O)[C@H](CCN)NC(=O)[C@H](CCN)NC(=O)[C@H](Cc2ccccc2)NC(=O)[C@@H](Cc2ccc(-c3ccccc3)cc2)NC(=O)[C@H](CCN)NC(=O)[C@@H](NC(=O)[C@H](CCN)NC(=O)[C@@H](NC(=O)[C@H](CCN)NC(=O)c2ccccc2)[C@@H](C)O)CCNC1=O | 8 µg/mL (≈ 6.26 µM) | 8 µg/mL (≈ 6.26 µM) | 8 µg/mL (≈ 6.26 µM) | 8 µg/mL (≈ 6.26 µM) | 4 µg/mL (≈ 3.13 µM)
C[C@@H](O)[C@@H]1NC(=O)[C@H](CCN)NC(=O)[C@H](CCN)NC(=O)[C@H](Cc2ccccc2)NC(=O)[C@@H](Cc2ccccc2)NC(=O)[C@H](CCN)NC(=O)[C@@H](NC(=O)[C@H](CCN)NC(=O)[C@@H](NC(=O)[C@H](CCN)NC(=O)c2ccccc2)[C@@H](C)O)CCNC1=O | 2 µg/mL (≈ 1.66 µM) | 4 µg/mL (≈ 3.33 µM) | 2 µg/mL (≈ 1.66 µM) | 2 µg/mL (≈ 1.66 µM) | 16 µg/mL (≈ 13.3 µM)
C[C@@H](O)[C@@H]1NC(=O)[C@H](CCN)NC(=O)[C@H](CCN)NC(=O)[C@H](Cc2ccc(-c3ccccc3)cc2)NC(=O)[C@@H](Cc2ccccc2)NC(=O)[C@H](CCN)NC(=O)[C@@H](NC(=O)[C@H](CCN)NC(=O)[C@@H](NC(=O)[C@H](CCN)NC(=O)c2cccc(-c3ccccc3)c2)[C@@H](C)O)CCNC1=O | > 16 µg/mL | > 16 µg/mL | 16 µg/mL (≈ 11.8 µM) | > 16 µg/mL | 16 µg/mL (≈ 11.8 µM)
CCCCC/C=C\C/C=C\CCCCCCCC(=O)N[C@@H](CCN)C(=O)N[C@H](C(=O)N[C@@H](CCN)C(=O)N[C@H]1CCNC(=O)[C@H]([C@@H](C)O)NC(=O)[C@H](CCN)NC(=O)[C@H](CCN)NC(=O)[C@H](CC(C)C)NC(=O)[C@@H](CC(C)C)NC(=O)[C@H](CCN)NC1=O)[C@@H](C)O | 16 µg/mL (≈ 12.4 µM) | > 16 µg/mL | > 16 µg/mL | > 16 µg/mL | > 16 µg/mL
CCCCCCCCC(CCCCCC)C(=O)N[C@@H](CCN)C(=O)N[C@H](C(=O)N[C@@H](CCN)C(=O)N[C@H]1CCNC(=O)[C@H]([C@@H](C)O)NC(=O)[C@H](CCN)NC(=O)[C@H](CCN)NC(=O)[C@H](CC(C)C)NC(=O)[C@@H](CC(C)C)NC(=O)[C@H](CCN)NC1=O)[C@@H](C)O (stereo not given in full) | 16 µg/mL (≈ 12.6 µM) | 16 µg/mL (≈ 12.6 µM) | > 16 µg/mL | > 16 µg/mL | > 16 µg/mL
C[C@@H](O)[C@@H]1NC(=O)[C@H](CCN)NC(=O)[C@H](CCN)NC(=O)[C@H](Cc2ccccc2)NC(=O)[C@@H](Cc2ccc(-c3ccccc3)cc2)NC(=O)[C@H](CCN)NC(=O)[C@@H](NC(=O)[C@H](CCN)NC(=O)[C@@H](NC(=O)[C@H](CCN)NC(=O)c2ccc(-c3ccccc3)cc2)[C@@H](C)O)CCNC1=O | 16 µg/mL (≈ 11.8 µM) | 16 µg/mL (≈ 11.8 µM) | 16 µg/mL (≈ 11.8 µM) | 16 µg/mL (≈ 11.8 µM) | 16 µg/mL (≈ 11.8 µM)
C[C@@H](O)[C@@H]1NC(=O)[C@H](CCN)NC(=O)[C@H](CCN)NC(=O)[C@H](Cc2ccccc2)NC(=O)[C@@H](Cc2ccccc2)NC(=O)[C@H](CCN)NC(=O)[C@@H](NC(=O)[C@H](CCN)NC(=O)[C@@H](NC(=O)[C@H](CCN)NC(=O)c2cccc(-c3ccccc3)c2)[C@@H](C)O)CCNC1=O | 8 µg/mL (≈ 6.26 µM) | 8 µg/mL (≈ 6.26 µM) | 4 µg/mL (≈ 3.13 µM) | 8 µg/mL (≈ 6.26 µM) | 8 µg/mL (≈ 6.26 µM)
CCCCCCCC(=O)N[C@@H](CCN)C(=O)N[C@H](C(=O)N[C@@H](CCN)C(=O)N[C@H]1CCNC(=O)[C@H]([C@@H](C)O)NC(=O)[C@H](CCN)NC(=O)[C@H](CCN)NC(=O)[C@H](CC(C)C)NC(=O)[C@@H](CC(C)C)NC(=O)[C@H](CCN)NC1=O)[C@@H](C)O (Octanoyl-[Dab]T[Dab][Dab][Dab][dL]L[Dab][Dab]T; lactam 4-C) | 4 µg/mL (≈ 3.46 µM) | 16 µg/mL (≈ 13.8 µM) | 4 µg/mL (≈ 3.46 µM) | 8 µg/mL (≈ 6.92 µM) | 8 µg/mL (≈ 6.92 µM)
C[C@@H](O)[C@@H]1NC(=O)[C@H](CCN)NC(=O)[C@H](CCN)NC(=O)[C@H](Cc2ccc(-c3ccccc3)cc2)NC(=O)[C@@H](Cc2ccccc2)NC(=O)[C@H](CCN)NC(=O)[C@@H](NC(=O)[C@H](CCN)NC(=O)[C@@H](NC(=O)[C@H](CCN)NC(=O)c2ccc(-c3ccccc3)cc2)[C@@H](C)O)CCNC1=O ({Benzoyl(4-Ph)}-[Dab]T[Dab][Dab][Dab][dF][Bip][Dab][Dab]T; lactam 4-C) | 16 µg/mL (≈ 11.8 µM) | 16 µg/mL (≈ 11.8 µM) | 16 µg/mL (≈ 11.8 µM) | 16 µg/mL (≈ 11.8 µM) | 16 µg/mL (≈ 11.8 µM)
COLISTIN | 2 µg/mL | 2 µg/mL | 4 µg/mL | 4 µg/mL | 4 µg/mL
C[C@@H](O)[C@@H]1NC(=O)[C@H](CCN)NC(=O)[C@H](CCN)NC(=O)[C@H](Cc2ccccc2)NC(=O)[C@@H](Cc2ccccc2)NC(=O)[C@H](CCN)NC(=O)[C@@H](NC(=O)[C@H](CCN)NC(=O)[C@@H](NC(=O)[C@H](CCN)NC(=O)c2ccc(-c3ccccc3)cc2)[C@@H](C)O)CCNC1=O | 8 µg/mL (≈ 6.26 µM) | 8 µg/mL (≈ 6.26 µM) | 8 µg/mL (≈ 6.26 µM) | 8 µg/mL (≈ 6.26 µM) | 4 µg/mL (≈ 3.13 µM)
CCCCCCCC(=O)N[C@@H](CCN)C(=O)N[C@H](C(=O)N[C@@H](CCN(C)C)C(=O)N[C@H]1CCNC(=O)[C@H]([C@@H](C)O)NC(=O)[C@H](CCN)NC(=O)[C@H](CCN)NC(=O)[C@H](CC(C)C)NC(=O)[C@@H](CC(C)C)NC(=O)[C@H](CCN)NC1=O)[C@@H](C)O | 2 µg/mL (≈ 1.69 µM) | 4 µg/mL (≈ 3.38 µM) | 4 µg/mL (≈ 3.38 µM) | 4 µg/mL (≈ 3.38 µM) | 4 µg/mL (≈ 3.38 µM)
CCCCCCCC(=O)N[C@@H](CCN)C(=O)N[C@H](C(=O)N[C@@H](CCN)C(=O)N[C@H]1CCNC(=O)[C@H]([C@@H](C)O)NC(=O)[C@H](CCN(C)C)NC(=O)[C@H](CCN)NC(=O)[C@H](CC(C)C)NC(=O)[C@@H](CC(C)C)NC(=O)[C@H](CCN)NC1=O)[C@@H](C)O | > 16 µg/mL | > 16 µg/mL | 16 µg/mL (≈ 13.5 µM) | > 16 µg/mL | > 16 µg/mL
CCCCCCCC(=O)N[C@@H](CCN(C)C)C(=O)N[C@H](C(=O)N[C@@H](CCN)C(=O)N[C@H]1CCNC(=O)[C@H]([C@@H](C)O)NC(=O)[C@H](CCN)NC(=O)[C@H](CCN)NC(=O)[C@H](CC(C)C)NC(=O)[C@@H](CC(C)C)NC(=O)[C@H](CCN)NC1=O)[C@@H](C)O | 4 µg/mL (≈ 3.38 µM) | > 16 µg/mL | 4 µg/mL (≈ 3.38 µM) | 8 µg/mL (≈ 6.76 µM) | 8 µg/mL (≈ 6.76 µM)
C[C@@H](O)[C@@H]1NC(=O)[C@H](CCN)NC(=O)[C@H](CCN)NC(=O)[C@H](Cc2ccccc2)NC(=O)[C@@H](Cc2ccc(-c3ccccc3)cc2)NC(=O)[C@H](CCN)NC(=O)[C@@H](NC(=O)[C@H](CCN)NC(=O)[C@@H](NC(=O)[C@H](CCN)NC(=O)c2cccc(-c3ccccc3)c2)[C@@H](C)O)CCNC1=O | > 16 µg/mL | 16 µg/mL (≈ 11.8 µM) | 16 µg/mL (≈ 11.8 µM) | 16 µg/mL (≈ 11.8 µM) | 16 µg/mL (≈ 11.8 µM)
CCCCCCCC(=O)N[C@@H](CCN)C(=O)N[C@H](C(=O)N[C@@H](CCN)C(=O)N[C@H]1CCNC(=O)[C@H]([C@@H](C)O)NC(=O)[C@H](CCN)NC(=O)[C@H](CCN)NC(=O)[C@H](CC(C)C)NC(=O)[C@@H](CC(C)C)NC(=O)[C@H](CCN(C)C)NC1=O)[C@@H](C)O | > 16 µg/mL | > 16 µg/mL | 8 µg/mL (≈ 6.76 µM) | > 16 µg/mL | > 16 µg/mL
CCCCCCCCC(CCCCCCCC)C(=O)N[C@@H](CCN)C(=O)N[C@H](C(=O)N[C@@H](CCN)C(=O)N[C@H]1CCNC(=O)[C@H]([C@@H](C)O)NC(=O)[C@H](CCN)NC(=O)[C@H](CCN)NC(=O)[C@H](CC(C)C)NC(=O)[C@@H](CC(C)C)NC(=O)[C@H](CCN)NC1=O)[C@@H](C)O | > 16 µg/mL | > 16 µg/mL | > 16 µg/mL | > 16 µg/mL | > 16 µg/mL
C[C@@H](O)[C@@H]1NC(=O)[C@H](CCN)NC(=O)[C@H](CCN)NC(=O)[C@H](Cc2ccc(-c3ccccc3)cc2)NC(=O)[C@@H](Cc2ccccc2)NC(=O)[C@H](CCN)NC(=O)[C@@H](NC(=O)[C@H](CCN)NC(=O)[C@@H](NC(=O)[C@H](CCN)NC(=O)c2ccccc2)[C@@H](C)O)CCNC1=O | 16 µg/mL (≈ 12.5 µM) | 8 µg/mL (≈ 6.26 µM) | 8 µg/mL (≈ 6.26 µM) | 8 µg/mL (≈ 6.26 µM) | 8 µg/mL (≈ 6.26 µM)
